In patent US11230543B2, “Biaryl monobactam compounds and methods of use thereof for the treatment of bacterial infections” (priority 2015, dated 2022):
Structures can show the parent of a compound that is named as a salt.

Tests used:
[1] = system: Pseudomonas aeruginosa expressing AmpC (CL5701); experiment: Antibiotic activity: growth inhibitory concentration (OD600), Pseudomonas aeruginosa CL5701; assay type: cell-based; conditions: lowest concentration inhibiting 95% of bacterial growth; in the presence of β lactamase inhibitor Relebactam 4 μg/mL; 35±2° C. for 22 hours; tested range 100 μM to 0.098 μM
Summary of the method: (§1)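 Growth inhibition by OD600 after 22 hours incubation at 35±2° C, reported as lowest concentration inhibiting 95% of growth (MITC95). Final compound range 100 μM to 0.098 μM, always combined with β-lactamase inhibitor relebactam (4 μg/mL final); inoculum ~2×10^5 CFU/mL in cation-adjusted Mueller-Hinton II broth.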

[2] = system: Klebsiella pneumoniae expressing KPC-1 (CL6569); experiment: Antibiotic activity: growth inhibitory concentration (OD600), Klebsiella pneumoniae CL6569; assay type: cell-based; conditions: lowest concentration inhibiting 95% of bacterial growth; in the presence of β lactamase inhibitor Relebactam 4 μg/mL; 35±2° C. for 22 hours; tested range 100 μM to 0.098 μM
Summary of the method: as §1

CC1(C)[C@H](NC(=O)/C(=N\O[C@@H](COc2ccc(-c3ccc(C(=O)NC(CN)CN)nc3)cc2)C(=O)O)c2csc(N)n2)C(=O)N1OS(=O)(=O)O [Example 81, (S)-2-((((Z)-1-(2-aminothiazol-4-yl)-2-(((S)-2,2-dimethyl-4-oxo-1-(sulfooxy)azetidin-3-yl)amino)-2-oxoethylidene)amino)oxy)-3-(4-(6-((1,3-diaminopropan-2-yl)carbamoyl)pyridin-3-yl)phenoxy)propanoic acid]
PA_CL5701 MITC95 [1]: 3.125 µM
KP_CL6569 MITC95 [2]: 0.1953 µM

C[n+]1cc(-c2ccc(OC[C@H](O/N=C(\C(=O)N[C@@H]3C(=O)N(OS(=O)(=O)[O-])C3(C)C)c3csc(N)n3)C(=O)O)nn2)cn1CCCN [Example 106, (S)-3-((Z)-2-(((S)-2-((6-(1-(3-aminopropyl)-2-methyl-1H-pyrazol-2-ium-4-yl)pyridazin-3-yl)oxy)-1-carboxyethoxy)imino)-2-(2-aminothiazol-4-yl)acetamido)-2,2-dimethyl-4-oxoazetidin-1-yl sulfate]
PA_CL5701 MITC95 [1]: 100 µM
KP_CL6569 MITC95 [2]: 50 µM

CN(CC(O/N=C(\C(=O)N[C@@H]1C(=O)N(OS(=O)(=O)[O-])C1(C)C)c1csc(N)n1)C(=O)O)c1ccc(-c2cn(CCCN)[n+](C)c2)cc1 (stereo partly drawn) [Example 92, (3S)-3-(2-((2-((4-(1-(3-aminopropyl)-2-methyl-1H-pyrazol-2-ium-4-yl)phenyl)(methyl)amino)-1-carboxyethoxy)imino)-2-(2-aminothiazol-4-yl)acetamido)-2,2-dimethyl-4-oxoazetidin-1-yl sulfate]
PA_CL5701 MITC95 [1]: 100 µM
KP_CL6569 MITC95 [2]: 6.25 µM

CC1(C)[C@H](NC(=O)/C(=N\O[C@@H](COc2ccc(-c3cn(CCCN)[n+](C[C@@H]4CCNC4)c3)cc2)C(=O)O)c2csc(N)n2)C(=O)N1OS(=O)(=O)[O-] [Example 53, (S)-3-((Z)-2-(((S)-2-(4-(1-(3-aminopropyl)-2-(((R)-pyrrolidin-3-yl)methyl)-1H-pyrazol-2-ium-4-yl)phenoxy)-1-carboxyethoxy)imino)-2-(2-aminothiazol-4-yl)acetamido)-2,2-dimethyl-4-oxoazetidin-1-yl sulfate]
PA_CL5701 MITC95 [1]: 1.563 µM
KP_CL6569 MITC95 [2]: 0.09766 µM

C[n+]1cc(-c2ccc(OC[C@H](O/N=C(\C(=O)N[C@@H]3C(=O)N(OS(=O)(=O)[O-])C3(C)C)c3csc(N)n3)C(=O)O)cc2)cnc1N(CCN)CC1CNC1 [Example 83, (S)-3-((Z)-2-(((S)-2-(4-(2-((2-aminoethyl)(azetidin-3-ylmethyl)amino)-1-methylpyrimidin-1-ium-5-yl)phenoxy)-1-carboxyethoxy)imino)-2-(2-aminothiazol-4-yl)acetamido)-2,2-dimethyl-4-oxoazetidin-1-yl sulfate]
PA_CL5701 MITC95 [1]: 1.563 µM
KP_CL6569 MITC95 [2]: 0.1953 µM

C[n+]1cc(-c2ccc(OC[C@H](O/N=C(\C(=O)N[C@@H]3C(=O)N(OS(=O)(=O)[O-])C3(C)C)c3nsc(N)n3)C(=O)O)cc2)cn1CCCN [Example 12, (S)-3-((Z)-2-(5-Amino-1,2,4-thiadiazol-3-yl)-2-(((S)-2-(4-(1-(3-aminopropyl)-2-methyl-1H-pyrazol-2-ium-4-yl)phenoxy)-1-carboxyethoxy)imino)acetamido)-2,2-dimethyl-4-oxoazetidin-1-yl sulfate]
PA_CL5701 MITC95 [1]: 3.125 µM
KP_CL6569 MITC95 [2]: 0.3906 µM

C[n+]1ccc(-c2ccc(OC[C@H](O/N=C(\C(=O)N[C@@H]3C(=O)N(OS(=O)(=O)[O-])C3(C)C)c3csc(N)n3)C(=O)O)cc2)cc1NCC1CNC1 [Example 65, (S)-3-((Z)-2-(2-aminothiazol-4-yl)-2-(((S)-2-(4-(2-((azetidin-3-ylmethyl)amino)-1-methylpyridin-1-ium-4-yl)phenoxy)-1-carboxy-ethoxy)imino)acetamido)-2,2-dimethyl-4-oxoazetidin-1-yl sulfate]
PA_CL5701 MITC95 [1]: 12.5 µM
KP_CL6569 MITC95 [2]: 0.3906 µM

C[n+]1cc(-c2ccc(OC[C@H](O/N=C(\C(=O)N[C@@H]3C(=O)N(OS(=O)(=O)[O-])C3(C)C)c3csc(N)n3)C(=O)O)cc2)cn1CC1CNC1 [Example 16, (S)-3-((Z)-2-(2-aminothiazol-4-yl)-2-(((S)-2-(4-(1-(azetidin-3-ylmethyl)-2-methyl-1H-pyrazol-2-ium-4-yl)phenoxy)-1-carboxy-ethoxy)imino)acetamido)-2,2-dimethyl-4-oxoazetidin-1-yl sulfate]
PA_CL5701 MITC95 [1]: 3.125 µM
KP_CL6569 MITC95 [2]: 0.3906 µM

C[n+]1cc(-c2ccc(OC[C@H](O/N=C(/C(=O)N[C@@H]3C(=O)N(OS(=O)(=O)[O-])C3(C)C)c3csc(N)n3)C(=O)O)cc2)cn1CCCNC[C@H](O)CO [Example 101, (S)-3-((E)-2-(2-aminothiazol-4-yl)-2-(((S)-1-carboxy-2-(4-(1-(3-(((S)-2,3-dihydroxypropyl)amino)propyl)-2-methyl-1H-pyrazol-2-ium-4-yl)phenoxy)ethoxy)imino)acetamido)-2,2-dimethyl-4-oxoazetidin-1-yl sulfate]
PA_CL5701 MITC95 [1]: 12.5 µM
KP_CL6569 MITC95 [2]: 0.7813 µM

CC1(C)[C@H](NC(=O)/C(=N\OCCOc2ccc(-c3cnn(CCCN)c3)cc2)c2csc(N)n2)C(=O)N1OS(=O)(=O)O [Example 5, (S,Z)-3-(2-((2-(4-(1-(3-aminopropyl)-1H-pyrazol-4-yl)phenoxy)ethoxy)imino)-2-(2-aminothiazol-4-yl)acetamido)-2,2-dimethyl-4-oxoazetidin-1-yl sulfate]
PA_CL5701 MITC95 [1]: 50 µM
KP_CL6569 MITC95 [2]: 6.25 µM

Cn1c(-c2ccc(OC[C@](C)(O/N=C(\C(=O)N[C@@H]3C(=O)N(OS(=O)(=O)O)C3(C)C)c3csc(N)n3)C(=O)O)cc2)cn(CCCN)c1=N [Example 107, (S)-3-((Z)-2-((((S)-1-(4-(1-(3-aminopropyl)-2-imino-3-methyl-2,3-dihydro-1H-imidazol-4-yl)phenoxy)-2-carboxypropan-2-yl)oxy)imino)-2-(2-aminothiazol-4-yl)acetamido)-2,2-dimethyl-4-oxoazetidin-1-yl sulfate]
PA_CL5701 MITC95 [1]: 50 µM
KP_CL6569 MITC95 [2]: 6.25 µM

C[n+]1cc(-c2ccc(OC[C@H](O/N=C(\C(=O)N[C@@H]3C(=O)N(OS(=O)(=O)[O-])C3(C)C)c3csc(N)n3)C(=O)O)cc2)ccc1C(=O)NC(CN)CN [Example 80, (S)-3-((Z)-2-(2-aminothiazol-4-yl)-2-(((S)-1-carboxy-2-(4-(6-((1,3-diaminopropan-2-yl)carbamoyl)-1-methylpyridin-1-ium-3-yl)phenoxy)ethoxy)imino)acetamido)-2,2-dimethyl-4-oxoazetidin-1-yl sulfate]
PA_CL5701 MITC95 [1]: 3.125 µM
KP_CL6569 MITC95 [2]: 0.1953 µM

C[n+]1c(N)c(-c2ccc(OC[C@H](O/N=C(\C(=O)N[C@@H]3C(=O)N(OS(=O)(=O)[O-])C3(C)C)c3csc(N)n3)C(=O)O)cc2F)cn1CCCN [Example 47, (S)-3-((Z)-2-(((S)-2-(4-(3-Amino-1-(3-aminopropyl)-2-methyl-1H-pyrazol-2-ium-4-yl)-3-fluorophenoxy)-1-carboxyethoxy)imino)-2-(2-aminothiazol-4-yl)acetamido)-2,2-dimethyl-4-oxoazetidin-1-yl sulfate]
PA_CL5701 MITC95 [1]: 3.125 µM
KP_CL6569 MITC95 [2]: 0.3906 µM

C[n+]1cc(-c2ccc(OC[C@H](O/N=C(\C(=O)N[C@@H]3C(=O)N(OS(=O)(=O)[O-])C3(C)C)c3nc(N)sc3Cl)C(=O)O)cc2)ccc1NCCN [Example 67, (S)-3-((Z)-2-(2-amino-5-chlorothiazol-4-yl)-2-(((S)-2-(4-(6-((2-aminoethyl)amino)-1-methylpyridin-1-ium-3-yl)phenoxy)-1-carboxyethoxy)imino)acetamido)-2,2-dimethyl-4-oxoazetidin-1-yl sulfate]
PA_CL5701 MITC95 [1]: 6.25 µM
KP_CL6569 MITC95 [2]: 0.7813 µM

C[n+]1cc(-c2ccc(OCC(O/N=C(\C(=O)N[C@@H]3C(=O)N(OS(=O)(=O)O)C3(C)C)c3csc(N)n3)P(=O)(O)O)cc2)cn1CCCN (stereo partly drawn) [Example 40, (3S)-3-((Z)-2-((2-(4-(1-(3-aminopropyl)-2-methyl-1H-pyrazol-2-ium-4-yl)phenoxy)-1-phosphonoethoxy)imino)-2-(2-aminothiazol-4-yl)acetamido)-2,2-dimethyl-4-oxoazetidin-1-yl sulfate]
PA_CL5701 MITC95 [1]: 50 µM
KP_CL6569 MITC95 [2]: 3.125 µM

C[n+]1cc(-c2ccc(OC[C@H](O/N=C(\C(=O)N[C@@H]3C(=O)N(OS(=O)(=O)[O-])C3(C)C)c3nc(N)sc3Cl)C(=O)O)cc2)cn1CCCN [Example 11, (S)-3-((Z)-2-(2-Amino-5-chlorothiazol-4-yl)-2-(((S)-2-(4-(1-(3-aminopropyl)-2-methyl-1H-pyrazol-2-ium-4-yl)phenoxy)-1-carboxyethoxy)imino)acetamido)-2,2-dimethyl-4-oxoazetidin-1-yl sulfate]
PA_CL5701 MITC95 [1]: 3.125 µM
KP_CL6569 MITC95 [2]: 0.7813 µM

CC(CN)Nc1ccc(-c2ccc(OC[C@H](O/N=C(\C(=O)N[C@@H]3C(=O)N(OS(=O)(=O)[O-])C3(C)C)c3csc(N)n3)C(=O)O)cc2)c[n+]1C (stereo partly drawn) [Example 76, (3S)-3-((Z)-2-(((1S)-2-(4-(6-((1-aminopropan-2-yl)amino)-1-methylpyridin-1-ium-3-yl)phenoxy)-1-carboxyethoxy)imino)-2-(2-aminothiazol-4-yl)acetamido)-2,2-dimethyl-4-oxoazetidin-1-yl sulfate]
PA_CL5701 MITC95 [1]: 3.125 µM
KP_CL6569 MITC95 [2]: 0.1953 µM

C[n+]1cc(-c2ccc(OC[C@H](O/N=C(\C(=O)N[C@@H]3C(=O)N(OS(=O)(=O)[O-])C3(C)C)c3csc(N)n3)C(=O)O)cc2)ccc1NCC1(O)CNC1 [Example 73, (S)-3-((Z)-2-(2-aminothiazol-4-yl)-2-(((S)-1-carboxy-2-(4-(6-(((3-hydroxyazetidin-3-yl)methyl)amino)-1-methylpyridin-1-ium-3-yl)phenoxy)ethoxy)imino)acetamido)-2,2-dimethyl-4-oxoazetidin-1-yl sulfate]
PA_CL5701 MITC95 [1]: 3.125 µM
KP_CL6569 MITC95 [2]: 0.1953 µM
